Measured values taken from US20090105197A1 (priority 2001, published 2009).
“And” between values parts separate entries of the source, which are not always exact repeats. Equal values may be shown once.

Experiments:
[1] = system: acetic acid-induced writhing in mice; experiment: animal or person; assay type: in vivo, Kunming mice; details: for ID95 (95% inhibition dose) of aspirin: i.m.
[2] = system: heat-induced tail flick in mice; details: mouse, in vivo
[3] = Mus musculus, im, read-out: inhibition Rate (%)
[4] = combined with small doses of TTX (1/25 and 1/50 LD50) versus aspirin alone

Compound	Average Writhing movements ([1]; mouse, in vivo, 3 mg/kg)	Average Writhing movements ([1]; mouse, in vivo, ip, 3 mg/kg)	analgesic effect with escalating doses [2]	Average Writhing movements ([1]; ASP alone 25 mg/kg i.m.)	Average Writhing movements ([1]; ASP alone 50 mg/kg i.m.)	Average Writhing movements ([1]; ASP alone 100 mg/kg i.m.)	Average Writhing movements ([1]; ASP alone 150 mg/kg i.m.)	Average Writhing movements ([1]; ASP alone 200 mg/kg i.m.)	inhibition at 25 mg/kg [1, 3] [%]	inhibition at 50 mg/kg [1, 3] [%]	inhibition at 100 mg/kg [1, 3] [%]	inhibition at 150 mg/kg [1, 3] [%]	inhibition at 200 mg/kg [1, 3] [%]	ID95 (95% inhibition dose) of aspirin ([1]; aspirin alone) [mg/kg]	ID95 (95% inhibition dose) of aspirin ([1]; aspirin alone, listed as aspirin)	ID95 (95% inhibition dose) of aspirin ([1]; aspirin combined with TTX 0.39 μg/kg (1/50 LD50))	ID95 (95% inhibition dose) of aspirin ([1]; aspirin combined with TTX 0.79 μg/kg (1/25 LD50))	reduction of ID50 of aspirin [1, 4]	reduction of ID95 of aspirin [1, 4]
NC1=N[C@H](O)[C@H]2[C@H]3O[C@]4(O)O[C@@H]([C@@H](O)[C@@]2(N1)[C@@H]4O)[C@]3(O)CO [TTX, Tetrodotoxin]	28.2 ± 9.65	23.2 ± 11.7	did not increase markedly with escalating doses																
CC(=O)Oc1ccccc1C(=O)O [ASP, Aspirin]				25.1 ± 14.5	19.3 ± 13.8	12.0 ± 9.2	5.2 ± 5.7	2.7 ± 1.9	35.6	50.6	69.3	86.6	93.2	361.8	361.8 mg/kg and 361.77 mg/kg	154.3 mg/kg and 154.33 mg/kg	94.5 mg/kg and 94.47 mg/kg	exceeded two folds	exceeded two folds
